Reference: US20250332182A1, “Galactooligosaccharides for improving immune response” (N.V. Nutricia, priority 2021, published 2025)

Tests used:
CXCR3+Th1 cells = settings: spleen; DON in the diet
[1] = test system: IL-4, IL-6, IL-13, TNF-α and MIP-2; settings: re-stimulated splenocytes of vaccinated mice; dietary DON
CD25+ FoxP3+ Treg cells = settings: spleen of vaccinated mice; DON in the diet
[2] = test system: vaccine-specific immunoglobulin; settings: vaccinated mice; DON in the diet
T1ST2+Th2 cells = settings: spleen; DON in the diet

CC1=C[C@H]2O[C@@H]3[C@H](O)C[C@](C)([C@@]2(CO)[C@H](O)C1=O)[C@]31CO1 [DON, deoxynivalenol]
effect on CXCR3+Th1 cells (CXCR3+Th1 cells): No significant effect | concentrations of IL-4, IL-6, IL-13, TNF-α and MIP-2 in cell supernatants [1]: No significant effect | percentage of CD25+ FoxP3+ Treg cells (CD25+ FoxP3+ Treg cells): not significantly affected | vaccine-specific immunoglobulin production [2]: reduced | effect on T1ST2+Th2 cells (T1ST2+Th2 cells): No significant effect
